What all share (format): cell-based
For experiment [1], the target named is Intestinal-type alkaline phosphatase (Homo sapiens, UniProt P09923). The experiment is described as follows: Inhibition of human IAP expressed in COS7 cells preincubated for 5 to 7 mins followed by CDP-star substrate addition measured after 15 to 20 mins by luminescence assay.
Experiment [2] addresses T1, Alkaline phosphatase, tissue-nonspecific isozyme (Homo sapiens, UniProt P05186).
T1 sequence (P05186 whole entry): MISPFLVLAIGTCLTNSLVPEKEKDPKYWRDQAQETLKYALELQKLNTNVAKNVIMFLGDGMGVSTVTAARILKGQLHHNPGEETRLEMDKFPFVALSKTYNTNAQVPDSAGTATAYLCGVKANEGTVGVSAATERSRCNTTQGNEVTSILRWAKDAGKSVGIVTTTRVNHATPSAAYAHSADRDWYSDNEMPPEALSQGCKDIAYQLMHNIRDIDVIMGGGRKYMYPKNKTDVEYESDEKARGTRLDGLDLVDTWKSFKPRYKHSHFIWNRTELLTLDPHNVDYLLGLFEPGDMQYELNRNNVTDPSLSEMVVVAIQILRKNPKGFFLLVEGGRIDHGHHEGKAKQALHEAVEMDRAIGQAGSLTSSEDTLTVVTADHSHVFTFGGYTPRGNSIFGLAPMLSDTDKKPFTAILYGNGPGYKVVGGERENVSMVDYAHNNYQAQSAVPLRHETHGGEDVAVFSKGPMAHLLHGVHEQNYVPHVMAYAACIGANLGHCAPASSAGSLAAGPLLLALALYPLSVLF
The experiment is described as follows: Inhibition of human TNAP expressed in COS7 cells preincubated for 5 to 7 mins followed by CDP-star substrate addition measured after 15 to 20 mins by luminescence assay.

The next experiment is filed under the species Homo sapiens. The experiment is described as follows: Selectivity ratio of IC50 for human IAP expressed in COS7 cells to IC50 for human TNAP expressed in COS7 cells.

Bounds are passed on as bounds.

Chain of Intestinal-type alkaline phosphatase (P09923 whole entry): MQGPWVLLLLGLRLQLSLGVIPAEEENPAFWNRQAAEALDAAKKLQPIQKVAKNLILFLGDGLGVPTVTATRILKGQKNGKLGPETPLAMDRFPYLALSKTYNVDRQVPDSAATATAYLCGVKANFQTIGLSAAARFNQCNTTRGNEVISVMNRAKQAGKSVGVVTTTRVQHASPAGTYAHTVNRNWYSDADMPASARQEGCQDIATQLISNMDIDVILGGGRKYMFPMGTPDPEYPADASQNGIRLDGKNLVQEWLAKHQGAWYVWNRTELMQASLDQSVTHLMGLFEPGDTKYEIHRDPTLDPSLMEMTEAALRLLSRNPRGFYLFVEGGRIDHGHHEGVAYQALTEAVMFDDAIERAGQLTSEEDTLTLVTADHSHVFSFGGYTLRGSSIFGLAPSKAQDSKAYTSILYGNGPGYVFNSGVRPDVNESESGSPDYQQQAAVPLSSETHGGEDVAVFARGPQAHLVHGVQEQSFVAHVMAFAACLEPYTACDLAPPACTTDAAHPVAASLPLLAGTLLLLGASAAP

Turning to `COc1ccc(-c2nn3c(=O)cc(C(F)(F)F)nc3s2)cc1`, the IC50 amounted to 480 nM in experiment [1] and 280 nM in experiment [2].
Turning to `CCOc1ccccc1-c1nn2c(=O)cc(C(F)(F)F)nc2s1`, the values for the half-inhibitory concentration (IC50) in experiment [1] and in experiment [2] were > 100000 nM and 4520 nM, respectively.
For the compound `Cc1ccc(-c2nn3c(=O)cc(C(F)(F)F)nc3s2)cc1`, the IC50 in experiment [1] worked out at 360 nM; in experiment [2], 1060 nM.
Take `CN(N)c1nn2c(=O)cc(C(F)(F)F)nc2s1`: the IC50 in experiment [1] is 2220 nM; in experiment [2], 2020 nM.
For the compound `CCCCN(CCCC)c1nn2c(=O)cc(C(F)(F)F)nc2s1`, the half-inhibitory concentration (IC50) in experiment [1] came to 4630 nM; in experiment [2], 1530 nM.
For the compound `CCc1ccc(-c2nn3c(=O)cc(C(F)(F)F)nc3s2)cc1`, the IC50 in experiment [1] was 4550 nM; in experiment [2], > 100000 nM.
For the compound `O=c1cc(C(F)(F)F)nc2sc(-c3ccccc3F)nn12`, the IC50 in experiment [1] and in experiment [2] was > 100000 nM throughout.
`C=CCNc1nn2c(=O)cc(C(F)(F)F)nc2s1`: the half-inhibitory concentration (IC50) amounted to 890 nM in experiment [1] and 290 nM in experiment [2]. Moreover, in the experiment listed under Homo sapiens, the Ratio IC50 is 3.
Consider `N#Cc1cccc(-c2nn3c(=O)cc(C(F)(F)F)nc3s2)c1`, for which the IC50 was 1120 nM in experiment [1] and 560 nM in experiment [2].
On to `COc1cc(OC)cc(-c2nn3c(=O)cc(C(F)(F)F)nc3s2)c1`, for which the IC50 worked out at 760 nM in experiment [1] and 1150 nM in experiment [2].
`O=c1cc(C(F)(F)F)nc2sc(-c3cccc(F)c3)nn12`: the values for the IC50 in experiment [1] and in experiment [2] were 740 nM and 1390 nM, respectively.
`CCOc1ccc(Nc2nn3c(=O)cc(C(F)(F)F)nc3s2)cc1`: the half-inhibitory concentration (IC50) in experiment [1] amounted to 2020 nM; in experiment [2] it was 1580 nM.
The matching figures for `Cc1cc(C)cc(-c2nn3c(=O)cc(C(F)(F)F)nc3s2)c1`: 460 nM and 520 nM.
Consider `O=c1cc(C(F)(F)F)nc2sc(-c3ccccc3)nn12`, for which the 50% inhibitory concentration (IC50) came to 430 nM in experiment [1] and 210 nM in experiment [2].
In the case of `CCCCNc1nn2c(=O)cc(C(F)(F)F)nc2s1`, the IC50 was 710 nM in experiment [1] and 880 nM in experiment [2].
For `O=c1cc(C(F)(F)F)nc2sc(-c3cccc([N+](=O)[O-])c3)nn12` the same measures were 480 nM and 620 nM.
On to `CN(C)CCNc1nn2c(=O)cc(C(F)(F)F)nc2s1`, for which the values for the IC50 in experiment [1] and in experiment [2] were 3750 nM and 450 nM, respectively.
The matching figures for `Cc1ccc(-c2nn3c(=O)cc(C(F)(F)F)nc3s2)cc1C`: 1750 nM and 540 nM.
Take `COc1cccc(Nc2nn3c(=O)cc(C(F)(F)F)nc3s2)c1`: the half-maximal inhibitory concentration (IC50) in experiment [1] came to 440 nM; in experiment [2] it was 380 nM.
For `O=c1cc(C(F)(F)F)nc2sc(-c3cccc(C(F)(F)F)c3)nn12` the same measures were 680 nM and 520 nM.
For `O=c1cc(C(F)(F)F)nc2sc(-c3cccc(-c4ccccc4)c3)nn12` the same measures were 1670 nM and 1120 nM.
For `Nc1ccc(Nc2nn3c(=O)cc(C(F)(F)F)nc3s2)cc1`, the IC50 in experiment [1] is 710 nM; in experiment [2], 330 nM.
Turning to `CCCNc1nn2c(=O)cc(C(F)(F)F)nc2s1`, the IC50 was 310 nM in experiment [1] and 1440 nM in experiment [2].
For the compound `CC(C)c1ccc(Nc2nn3c(=O)cc(C(F)(F)F)nc3s2)cc1`, the IC50 in experiment [1] is 31500 nM; in experiment [2], 1980 nM.
The matching figures for `CCOc1ccc(-c2nn3c(=O)cc(C(F)(F)F)nc3s2)cc1`: 790 nM and 930 nM.
`N[C@@H](Cc1ccccc1)C(=O)O` [PHENYLALANINE]: the IC50 in experiment [1] was 80200 nM.
Consider `O=c1cc(C(F)(F)F)nc2sc(-c3ccc(OC(F)(F)F)cc3)nn12`, for which the 50% inhibitory concentration (IC50) in experiment [1] was 240 nM; in experiment [2], > 100000 nM.
Turning to `COc1ccccc1-c1nn2c(=O)cc(C(F)(F)F)nc2s1`, the IC50 in experiment [1] was > 100000 nM; in experiment [2], 3480 nM.
For `CCCCCNc1nn2c(=O)cc(C(F)(F)F)nc2s1`, the IC50 is 760 nM in experiment [1] and 610 nM in experiment [2].

Source of the values: ChEMBL document CHEMBL4251605, “2-Substituted 7-trifluoromethyl-thiadiazolopyrimidones as alkaline phosphatase inhibitors. Synthesis, structure activity relationship and molecular docking study” (Eur J Med Chem, 2018).
